Measurements reported in publication PMC10914731, “Homo-BacPROTAC-induced degradation of ClpC1 as a strategy against drug-resistant mycobacteria” (Nature Communications, 2024).
Converted amounts (≈) assume the structure as drawn. “And” between values parts separate entries of the source, which are not always exact repeats. Equal values may be shown once. Read-outs that look alike come from different tables or passages of the source.

Experiments:
[1] = molecular target: ClpC1 NTD protein (M. tuberculosis) (Mycobacterium tuberculosis, UniProt P9WPC9); assay: biochemical; format: binding
in vitro = settings: human
How it was run: (§1)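 Permeability across Caco-2 monolayers was measured in both directions, apical-to-basolateral and basolateral-to-apical, in 10^-6 cm s-1. Efflux ratio = P(B−A)/P(A−B). Intrinsic permeability is the mean of P(A−B) and P(B−A).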

Caco-2 monolayers = assay: in vitro; settings: human, Caco-2
How it was run: as §1

[2] = format: in vitro ADME, Mice; settings: for Microsomal Stability Mice: clearance in microsomes
How it was run: (§2)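 Compound (1 µmol/l) was incubated at 37 °C with 0.5 mg/ml liver microsomes in 100 mM Tris-HCl pH 7.5, 6.5 mM MgCl2 and 1 mM NADPH. Reactions were quenched with acetonitrile at several time points and parent remaining quantified by HPLC-MS/MS; first-order half-lives were converted to clearance as %Qh via the well-stirred model.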

[3] = format: in vitro ADME, Rat; settings: for Microsomal Stability Rat: clearance in microsomes
How it was run: as §2

[4] = Microsomal stability, human; format: in vitro ADME; settings: for Microsomal Stability Human: clearance in microsomes
How it was run: as §2

[5] = Hepatocyte stability, mice; format: in vitro ADME; settings: mouse, pH 7.4
How it was run: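 Clearance, expressed as % of liver blood flow (% Qh), derived from parent-compound half-life by the well-stirred model, with HPLC-MS/MS quantitation after acetonitrile quench. Test compound at 1 µM final added to mouse hepatocyte suspension in 50% serum after 15–30 min acclimation at 37 °C; six samples over up to 6 h.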

[6] = format: in vitro ADME, Rat; settings: rat, pH 7.4
[7] = format: in vitro ADME, Human; settings: human, pH 7.4
[8] = test system: M. tuberculosis H37Rv (ATCC 27294); assay: microbe, parasite or virus in culture; format: cell-based
Msm 607 = assay: microbe, parasite or virus in culture; format: cell-based
Msm 700084 = assay: microbe, parasite or virus in culture; format: cell-based
[9] = molecular target: His6-tagged ClpC1-NTD substrate, M. smegmatis ClpC1P1P2 (UniProt A0R574+P9WPC9); assay: biochemical; format: biochemical
[10] = molecular target: ClpC1-NTD substrate, M. tuberculosis ClpC1P1P2 (Mycobacterium tuberculosis, UniProt P9WPC9); assay: biochemical; format: biochemical
[11] = molecular target: endogenous ClpC1 in Msm #607 cells (Mycolicibacterium smegmatis, UniProt A0R574); format: cell-based, M. smegmatis
[12] = SPR dissociation rate constant, read-out: koff ClpC1-NTD Mean ± SD
[13] = SPR, single independent measurements
[14] = SPR, single independent measurements, read-out: koff ClpC1-NTD
[15] = Caco-2, Caco-2 permeability P (A-B)
[16] = Mycobacterium tuberculosis, Mtb H37Rv (Supplementary Table 2), read-out: MIC Mtb
[17] = Mycobacterium tuberculosis, single determinations, read-out: Mtb MIC
[18] = Mycolicibacterium smegmatis, 607, read-out: MIC Msm 607
[19] = Mycolicibacterium smegmatis, 607, read-out: Msm 607 MIC, single determinations
[20] = Mycolicibacterium smegmatis, 700084, single determinations, read-out: Msm 700084 MIC
[21] = Mycolicibacterium smegmatis, 700084, read-out: MIC Msm 700084
[22] = Msm, Measurement 1-6, read-out: 1-Dmax, single measurements
[23] = Msm, mean of the measurements, read-out: 1-Dmax, Mean
[24] = Msm, mean of the measurements, read-out: DC50, Mean
[25] = Mtb, Measurement 1-4, read-out: 1-Dmax, single measurements
[26] = Mtb, mean of the measurements, read-out: 1-Dmax, Mean
[27] = Mtb, mean of the measurements, read-out: DC50, Mean
[28] = read-out: DC50, single measurements

Sequence of ClpC1 NTD protein (M. tuberculosis) (P9WPC9 1-156, looked up, natural form): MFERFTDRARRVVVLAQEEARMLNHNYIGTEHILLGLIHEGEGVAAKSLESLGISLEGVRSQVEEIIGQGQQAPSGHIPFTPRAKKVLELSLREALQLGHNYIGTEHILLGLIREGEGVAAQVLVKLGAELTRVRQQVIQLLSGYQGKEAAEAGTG
Sequence of His6-tagged ClpC1-NTD substrate, M. smegmatis ClpC1P1P2 (P9WPC9 1-156, looked up, natural form): as above
Sequence of His6-tagged ClpC1-NTD substrate, M. smegmatis ClpC1P1P2 (A0R574 whole entry): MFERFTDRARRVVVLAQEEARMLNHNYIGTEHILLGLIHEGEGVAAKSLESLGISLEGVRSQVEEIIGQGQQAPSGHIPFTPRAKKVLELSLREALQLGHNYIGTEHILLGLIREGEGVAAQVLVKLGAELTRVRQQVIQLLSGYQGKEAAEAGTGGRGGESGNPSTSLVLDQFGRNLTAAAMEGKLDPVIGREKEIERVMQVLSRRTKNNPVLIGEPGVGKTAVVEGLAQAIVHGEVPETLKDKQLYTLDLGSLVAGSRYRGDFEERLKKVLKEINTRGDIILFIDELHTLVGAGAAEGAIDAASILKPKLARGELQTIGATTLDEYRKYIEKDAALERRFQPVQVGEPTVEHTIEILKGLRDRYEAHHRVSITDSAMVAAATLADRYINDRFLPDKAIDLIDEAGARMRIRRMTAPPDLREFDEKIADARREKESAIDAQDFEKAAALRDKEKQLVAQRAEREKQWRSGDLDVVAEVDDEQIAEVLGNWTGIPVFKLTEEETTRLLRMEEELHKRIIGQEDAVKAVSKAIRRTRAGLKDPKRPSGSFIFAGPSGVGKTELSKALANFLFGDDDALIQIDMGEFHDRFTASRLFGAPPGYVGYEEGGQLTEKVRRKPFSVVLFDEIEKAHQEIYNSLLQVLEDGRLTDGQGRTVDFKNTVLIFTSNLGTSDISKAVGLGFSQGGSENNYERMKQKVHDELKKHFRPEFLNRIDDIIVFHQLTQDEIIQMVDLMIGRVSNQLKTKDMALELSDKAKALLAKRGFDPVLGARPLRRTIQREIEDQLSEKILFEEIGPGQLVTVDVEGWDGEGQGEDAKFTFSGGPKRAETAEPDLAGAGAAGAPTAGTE
Sequence of ClpC1-NTD substrate, M. tuberculosis ClpC1P1P2 (P9WPC5 whole entry): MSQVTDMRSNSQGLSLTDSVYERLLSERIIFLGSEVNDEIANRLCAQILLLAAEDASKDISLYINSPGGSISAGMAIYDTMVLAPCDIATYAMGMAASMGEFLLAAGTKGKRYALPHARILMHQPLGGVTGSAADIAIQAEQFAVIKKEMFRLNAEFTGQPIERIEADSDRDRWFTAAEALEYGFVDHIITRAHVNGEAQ
Sequence of ClpC1-NTD substrate, M. tuberculosis ClpC1P1P2 (P9WPC9 whole entry): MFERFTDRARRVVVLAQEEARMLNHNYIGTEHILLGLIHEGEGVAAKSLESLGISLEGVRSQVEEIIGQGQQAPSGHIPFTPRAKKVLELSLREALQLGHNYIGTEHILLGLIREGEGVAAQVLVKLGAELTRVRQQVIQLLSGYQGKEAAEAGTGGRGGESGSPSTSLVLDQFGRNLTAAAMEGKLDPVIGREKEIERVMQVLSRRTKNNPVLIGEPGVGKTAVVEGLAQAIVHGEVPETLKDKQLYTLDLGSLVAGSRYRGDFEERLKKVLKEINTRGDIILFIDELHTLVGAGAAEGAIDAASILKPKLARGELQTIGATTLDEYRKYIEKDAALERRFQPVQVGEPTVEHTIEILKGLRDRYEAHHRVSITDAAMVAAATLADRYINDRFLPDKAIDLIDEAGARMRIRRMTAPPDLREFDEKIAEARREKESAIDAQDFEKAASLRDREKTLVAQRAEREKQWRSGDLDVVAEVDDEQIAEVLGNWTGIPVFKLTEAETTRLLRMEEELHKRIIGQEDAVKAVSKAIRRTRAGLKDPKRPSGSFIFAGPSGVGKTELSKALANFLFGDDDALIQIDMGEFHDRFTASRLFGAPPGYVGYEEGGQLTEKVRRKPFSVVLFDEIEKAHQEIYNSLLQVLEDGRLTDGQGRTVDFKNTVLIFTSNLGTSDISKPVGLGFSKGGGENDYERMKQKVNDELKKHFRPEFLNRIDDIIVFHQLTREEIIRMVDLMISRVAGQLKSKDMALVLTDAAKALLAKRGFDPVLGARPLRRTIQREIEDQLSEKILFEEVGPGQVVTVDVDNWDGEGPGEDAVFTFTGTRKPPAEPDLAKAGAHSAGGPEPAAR
Sequence of ClpC1-NTD substrate, M. tuberculosis ClpC1P1P2 (P9WPC3 whole entry, further chain): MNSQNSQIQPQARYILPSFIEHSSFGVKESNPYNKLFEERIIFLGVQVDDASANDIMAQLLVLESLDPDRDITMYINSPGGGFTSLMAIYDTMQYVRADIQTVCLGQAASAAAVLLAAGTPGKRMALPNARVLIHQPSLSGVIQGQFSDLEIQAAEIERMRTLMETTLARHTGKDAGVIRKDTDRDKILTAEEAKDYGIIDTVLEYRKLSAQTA
Sequence of endogenous ClpC1 in Msm #607 cells (A0R574 whole entry): as the sequence (A0R574 whole entry) above

Compound | koff [1, 12] [s⁻¹] | koff ClpC1-NTD [1, 13] | koff [1, 14] [s⁻¹] | Papp A→B (in vitro; [15]) [×10⁻⁶ cm/s] | Caco-2 Int. Perm (Caco-2 monolayers) | Microsomal Stability Mouse QH [2] [%] | Microsomal Stability Mice [2] [%Qh] | Microsomal Stability Rat QH [3] [%] | Microsomal Stability Rat [3] [%Qh] | Microsomal Stability Human QH [4] [%] | Microsomal Stability Human [4] [%Qh] | Hepatocyte Mice [5] [%Qh] | Hepatocyte Rat [6] [%Qh] | Hepatocyte Stability Rat QH [6] [%] | Hepatocyte Human [7] [%Qh] | Hepatocyte Stability Human QH [7] [%] | MIC [8, 16] [µM] | MIC [8, 17] [µM] | MIC (Msm 607; [18]) [µM] | MIC (Msm 607; [19]) [µM] | also measured
CO[C@H](c1ccccc1)[C@@H]1NC(=O)[C@H](C)NC(=O)[C@H](C[C@@H](C)CO)N(C)C(=O)[C@H](Cc2cn(Cc3cn(CCCCCn4cc(Cn5cc(C[C@@H]6NC(=O)[C@H](C(C)C)NC(=O)[C@H](CC(C)C)N(C)C(=O)[C@H](C(C)C)NC(=O)[C@H]([C@H](OC)c7ccccc7)NC(=O)[C@H](C)NC(=O)[C@H](C[C@@H](C)CO)N(C)C6=O)c6ccccc65)nn4)nn3)c3ccccc23)NC(=O)[C@H](C(C)C)NC(=O)[C@H](CC(C)C)N(C)C(=O)[C@H](C(C)C)NC1=O [Compound 9] | 0.0005 | 0.0005 s⁻¹ and 0.0006 s⁻¹ | 0.0005 | < 0.2 | 0.1 | 24.7 | 25 | <23.100 | < 23 | 43.3 | 43 | 15 | 6 | 6.192 | 12 | 12.386 | 0.3 ± 0.1 (≈ 0.611 µg/mL) | 0.39 (≈ 0.794 µg/mL) | 0.8 (≈ 1.63 µg/mL) | 0.78 (≈ 1.59 µg/mL) | Kd ([1]; SPR (Supplementary Table 1), read-out: KD ClpC1-NTD Mean ± SD): 0.0006 ± 0.0002 µM; Kd ([1]; SPR, single independent measurements, read-out: KD ClpC1-NTD): 0.000453 µM and 0.000515 µM and 0.000745 µM; Papp A→B (in vitro; Caco-2, CACO permeability PEAB): < 1.2 ×10⁻⁶ cm/s; Papp B→A (in vitro; Caco-2, CACO permeability PEBA): < 0.28 ×10⁻⁶ cm/s; Caco-2 permeability P (B-A) (Caco-2 monolayers): 0; Hepatocyte Stability Mouse QH [5]: 15.001%; MIC ([8]; single determinations, read-out: Mtb MIC): 0.195 µM (≈ 0.397 µg/mL); MIC (Msm 700084; [20]): > 50 µM; MIC (Msm 700084; [21]): > 50 µM; 1-Dmax, single measurements ([9]; Msm, Measurement 1-6): 54.4% and 51.4%; 1-Dmax (percent substrate remaining at maximal degradation) [9, 22]: 54.7%; DC50 ([9]; Msm, Measurement 1-6, read-out: DC50, single measurements): 7.8 µM and 9.2 µM and 6.9 µM; 1-Dmax (percent substrate remaining at maximal degradation) [9, 23]: 54%; DC50 [9, 24]: 8 µM; 1-Dmax, single measurements ([10]; Mtb, Measurement 1-4): 29.9% and 20.5%; 1-Dmax (percent substrate remaining at maximal degradation) [10, 25]: 27.5%; DC50 ([10]; Mtb, Measurement 1-4, read-out: DC50, single measurements): 7.2 µM and 8.7 µM and 4.4 µM; 1-Dmax (percent substrate remaining at maximal degradation) [10, 26]: 26%; DC50 [10, 27]: 6.8 µM
CO[C@@H](c1ccccc1)[C@H]1NC(=O)[C@@H](C)NC(=O)[C@@H](C[C@H](C)CO)N(C)C(=O)[C@@H](Cc2cn(C)c3ccccc23)NC(=O)[C@@H](Cc2cn(CCCCCn3cc(C[C@H]4NC(=O)[C@@H](CC(C)C)N(C)C(=O)[C@@H](C(C)C)NC(=O)[C@@H]([C@@H](OC)c5ccccc5)NC(=O)[C@@H](C)NC(=O)[C@@H](C[C@H](C)CO)N(C)C(=O)[C@@H](Cc5cn(C)c6ccccc56)NC4=O)nn3)nn2)NC(=O)[C@@H](CC(C)C)N(C)C(=O)[C@@H](C(C)C)NC1=O [Compound 12a] | – | – | – | – | – | – | – | – | – | – | – | – | – | – | – | – | – | – | – | – | degradation of the His6-tagged ClpC1-NTD substrate [9]: did not cause any degradation; DC50 ([9]; read-out: DC50, Mean): > 100 µM; DC50 [9, 28]: > 100 µM; DC50 ([10]; read-out: DC50, Mean): > 100 µM; DC50 [10, 28]: > 100 µM; intracellular degradation of ClpC1 [11]: inactive
CO[C@H](c1ccccc1)[C@@H]1NC(=O)[C@H](C)NC(=O)[C@H](C[C@@H](C)CO)N(C)C(=O)[C@H](Cc2cn(Cc3cn(CCOCCOCCOCCOCCn4cc(Cn5cc(C[C@H]6C(=O)N(C)[C@@H](C[C@@H](C)CO)C(=O)N[C@@H](C)C(=O)N[C@@H]([C@H](OC)c7ccccc7)C(=O)N[C@@H](C(C)C)C(=O)N(C)[C@@H](CC(C)C)C(=O)N[C@@H](C(C)C)C(=O)N6C)c6ccccc65)nn4)nn3)c3ccccc23)N(C)C(=O)[C@H](C(C)C)NC(=O)[C@H](CC(C)C)N(C)C(=O)[C@H](C(C)C)NC1=O [Compound 27] | 0.002 | 2E-3 2E-3 1/s | 0.002 | < 6.4 | 4.1 | 77.100 | 77 | 41.300 | 41 | >88.400 | > 88 | 15 | 6 | 6.192 | 12 | 12.386 | < 0.1 | < 0.1 | 1.6 (≈ 3.52 µg/mL) | 1.56 (≈ 3.43 µg/mL) | Kd ([1]; SPR, individual measurements (source data), read-out: KD ClpC1-NTD): 0.0003 µM and 0.000576 µM; Kd ([1]; SPR, read-out: ClpC1-NTD KD Mean ± SD): 0.0004 ± 0.0002 µM; Papp B→A (in vitro; Caco-2, Caco-2 permeability P (B-A)): < 1.7 ×10⁻⁶ cm/s; MIC ([8]; Mycobacterium tuberculosis, M. tuberculosis H37Rv strain, read-out: MIC Mtb H37Rv Mean ± SD): < 0.1 µM; MIC ([8]; Mycobacterium tuberculosis, individual measurements (source data), read-out: Mtb MIC): < 0.1 µM; MIC (Msm 700084; [20]): 0.78 µM (≈ 1.72 µg/mL); MIC (Msm 700084; [21]): 0.8 µM (≈ 1.76 µg/mL); 1-Dmax, single measurements ([9]; Msm, Measurement 1-6): 93.8% and 90.4%; 1-Dmax (percent substrate remaining at maximal degradation) [9, 22]: 89.3%; 1-Dmax (percent substrate remaining at maximal degradation) [9, 23]: 91%; DC50 [9, 24]: 12.5 µM; 1-Dmax, single measurements ([10]; Mtb, Measurement 1-4): 70.9% and 71.4% and 79.4%; 1-Dmax (percent substrate remaining at maximal degradation) [10, 25]: 75.3%; 1-Dmax (percent substrate remaining at maximal degradation) [10, 26]: 74%; DC50 [10, 27]: 24.7 µM
